Measured values from patent US5064827A, “Polyhydroxybenzyloxpropanolamines” (Du Pont Merck Pharmaceutical Company, priority 1990, dated 1991).

What was measured:
[1] = molecular target: T1, β-receptor (guinea pig right atria) (Cavia porcellus, UniProt H0W3H1); assay: Beta-blocking activity in vitro, guinea pig right atria (antagonism of isoproterenol-induced rate response); format: cell-based; details: 60-minute incubation, 37° C, Furchgott method; for Kb: read-out: pA2 Atria (converted)
T1 construct: from tissue; host or cells: guinea pig right atria
Procedure: Several of the compounds of the present invention were tested for β-blocking activity in vitro using guinea pig right atria and guinea pig tracheal strips mounted in a tissue bath containing oxygenated (95% 02 -5% CO2) Krebs physiological salt solution at 37° C. Each tissue was suspended between a fixed glass rod and a Statham Universal Transducer connected to a Beckman recorder. Atria were allowed to beat spontaneously under a loading tension of approximately 0.5 gm. Intrinsic depressant or stimulant activity was determined for each compound by progressively increasing concentrations in the tissue baths at 60-minute intervals. Tissues were not washed between increments. The maximum concentration showing little or no cardiodepressant activity was chosen for blockade experiments. Changes in rate in response to isoproterenol, a standard β-receptor agonist, were measured in the absence and presence of test compounds. Spiral strips of guinea pig trachea were suspended under 5 gm resting tension and incubated with phentolamine, tropolone and cocaine. Active tension was generated by addition of carbachol (3.0×10^-7 M) and decreases in tension in response to isoproterenol were quantitated. Cumulative concentration-response curves were produced with isoproterenol both before and after 60-minute incubation of test compounds with atria and trachea. Compounds with β-blocking activity shifted concentration-response curves to the right. The blocking potency of test compounds was estimated by computing pA2 values (--log K8) by the method of Furchgott, the Pharmacological Differentiation of Adrenergic Receptors, Ann. N.Y. Acad. Sci., 139:553-570 (1967). […] The degree of cardioselectivity was estimated from the ratio, Kβ trachea/Kβ atria (10^(pA 2^atria-pA 2^trachea)). A ratio greater than one indicates cardioselectivity. Test drugs were dissolved in distilled water and added to the bath (30 mL) in a volume of 10 or 100 μL. All of the test compounds are active β-blockers.

[2] = tested on: β-receptor (heart rate response to isoproterenol); assay: Duration and potency of beta-blocking action in vivo (3-hour infusion, isoproterenol challenge, pentobarbital-anesthetized dogs); parameters: species or system dog
Procedure: The duration of β-blockage was determined in vivo using pentobarbital-anesthetized dogs instrumented for measurement of heart rate using a Beckman cardiotachometer triggered electronically by a phasic aortic blood pressure signal. Both vagus nerves were severed in the cervical region and the animals were mechanically ventilated. The experimental design used employed a 3-hour infusion of test compound. Bolus doses of isoproterenol (0.5 μg/kg) were used to assess the degree of β-blockage and recovery from β-blockage after […] of the infusion. The doses were spaced at 10-minute intervals and were given before, during and following the infusion of test compounds. The infusion rate was adjusted so that at the end of the 3-hour infusion period the degree of isoproterenol inhibition averaged about 50% of control. Following termination of blocker infusion, percent recovery from β-blockade was computed and the time associated with 80% recovery estimated.

T1 sequence (H0W3H1 1-470): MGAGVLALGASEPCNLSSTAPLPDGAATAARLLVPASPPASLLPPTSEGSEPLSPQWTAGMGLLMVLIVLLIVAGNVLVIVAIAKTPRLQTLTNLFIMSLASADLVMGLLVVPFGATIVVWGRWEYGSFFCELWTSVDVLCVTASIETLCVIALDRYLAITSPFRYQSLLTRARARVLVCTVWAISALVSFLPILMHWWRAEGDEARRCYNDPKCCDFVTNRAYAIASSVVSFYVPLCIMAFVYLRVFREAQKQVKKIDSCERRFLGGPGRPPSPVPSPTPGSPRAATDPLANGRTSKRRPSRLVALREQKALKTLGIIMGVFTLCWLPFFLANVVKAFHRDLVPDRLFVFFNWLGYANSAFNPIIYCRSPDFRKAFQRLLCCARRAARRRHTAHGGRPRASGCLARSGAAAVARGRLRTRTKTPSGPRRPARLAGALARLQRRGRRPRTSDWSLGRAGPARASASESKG

| Compound | pA2 Atria [1] | Kb [1] | also measured |
| --- | --- | --- | --- |
| CC(C)(C)NCC(O)COCc1ccc(O)c(O)c1 (stereo not drawn) [Compound 4a] | 6.5 | – | In Vivo Potency ([2]; anesthetized dogs, infusion rate adjusted to about 50% isoproterenol inhibition at end of 3-hour infusion): 112 mcg/k/m; In Vivo % I ([2]; isoproterenol inhibition (isoproterenol 0.5 μg/kg bolus), dogs, 3-hour infusion at the listed potency rate): 45%; DOA (Time for rec. in min.) 50% ([2]; time to 50% recovery from β-blockade after termination of 3-hour infusion, dogs): 5 min; DOA (Time for rec. in min.) 80% ([2]; time to 80% recovery from β-blockade after termination of 3-hour infusion, dogs, estimated): 16 min |
| CC(C)(C)NCC(O)COCc1cc(O)c(O)cc1F (stereo not drawn) [Compound 4b] | 7.0 | – | – |
| Cc1cc(O)c(O)cc1COCC(O)CNC(C)(C)C (stereo not drawn) [Compound 4c] | 6.0 | – | – |

Continued, in another order:

| pA2 Atria [1] | Kb [1] | Compound | also measured |
| --- | --- | --- | --- |
| – | 0.316 µM | CC(C)(C)NCC(O)COCc1cc(O)cc(O)c1 (stereo not drawn) [Compound 5a] | – |
| – | 1 µM | CC(C)(C)NCC(O)COCc1cc(O)c(O)c(O)c1 (stereo not drawn) [Compound 5b] | – |
| – | 0.0794 µM | CC(C)C(=O)NCC(C)(C)NCC(O)COCc1cc(O)cc(O)c1 (stereo not drawn) [Compound 5c] | – |
| – | 0.0794 µM | CC(C)(CNC(=O)c1ccccc1)NCC(O)COCc1cc(O)cc(O)c1 (stereo not drawn) [Compound 5d] | – |
| – | 0.2 µM | CC(C)(CNC(=O)C1CCCCC1)NCC(O)COCc1cc(O)cc(O)c1 (stereo not drawn) [Compound 5e] | – |
